The record followed here is paper PMC12615518, “Discovery of CRBN-recruiting PROTAC degraders of the METTL3-METTL14 complex” (Medicinal Chemistry Research, 2025).

“Also recorded” adds a separate entry of the source.

In one data set the target is T1, METTL14 (Homo sapiens, UniProt Q9HCE5).
T1 construct: Following treatment, total cellular proteins were extracted using RIPA buffer; endogenous in cells; host or cells: MV4-11 (MV4.11) human AML cells, ATCC
Nature of the data set: Immunoblotting (Western blot) degradation of METTL14 in MV4-11 cells. Type of data set: cell-based. The procedure: All cell lines were maintained under standard conditions in a humidified atmosphere at 37 °C with 5% CO₂.
Western Blot Analysis: Following treatment, total cellular proteins were extracted using RIPA buffer (Auragene, Changsha, China). […] After washing, membranes were incubated with horseradish peroxidase (HRP)-conjugated secondary antibodies (anti-rabbit or anti-mouse IgG; 1:5000) for 2 hours at room temperature. Protein bands were visualized using an enhanced chemiluminescence (ECL) detection kit (Amersham Pharmacia), following the manufacturer's protocol. Band intensities were quantified using ImageJ software and normalized to ACTIN as a loading control. Data was analyzed using GraphPad Prism 9.
A general note: A western blot detects proteins with antibodies after separation by electrophoresis.

Data set [1] in a line: Metabolic stability in human liver microsomes. The note with it: NADPH, 37 °C. Type of data set: in vitro ADME. The protocol: To evaluate the potential for advancing this compound to in vivo studies, the in vitro metabolic stability of this compound was determined in human liver microsomes. […] The flexible linker could then be one potential reason for overall metabolic instability. With this knowledge in hand, further optimization of the lead compound would be necessary before beginning in vivo studies. One potential approach is to introduce more rigid linker systems, thereby reducing molecular flexibility to enhance the metabolic stability while continuing to improve potency.
Materials for Microsomal Stability: Reagent-grade KH2PO4, K2HPO4, acetonitrile, methanol, and formic acid (LC-MS grade) were purchased from Fisher Scientific. Phenacetin (≥98% purity) and verapamil (≥98% purity) were obtained from Sigma-Aldrich. Reduced nicotinamide adenine dinucleotide phosphate (NADPH) and human liver microsomes (Lot No # 1210270) were obtained from MP Biomedicals and BioIVT, respectively. Ultrapure water was used for analysis.
Metabolic Stability: Metabolic stability was assessed using male human liver microsomes. ZW30441 was incubated at a concentration of 1 µM with 1 mg/mL of microsomal protein in 50 mM phosphate buffer (pH 7.4). […] Following protein precipitation, the samples were filtered using a Solvinert 96-well plate, centrifuged at 2000 rpm, and analyzed by LC–MS/MS. […]
For orientation: Liver microsomes are a subcellular fraction often used to study metabolism.

The target in another data set is METTL3 (Homo sapiens, UniProt Q86U44). The experiment in a line: Mechanism study: METTL3 Western blot in HEK293T cells after pretreatment with proteasome inhibitors or CRBN ligand. Type of data set: cell-based. More on the design: endogenous in cells. The conditions noted are these: then ZW30441 2.5 µM for 24 h. The protocol:
We next explored the mechanisms of ZW30441-induced METTL3-METTL14 degradation. HEK293T cells were pretreated with the proteasome inhibitors bortezomib (0.1 µM) or MG132 (1 µM) for 2 h before ZW30441 (2.5 µM) administration (Fig. 4A).
Fig. 4 ZW30441 induced METTL3-METTL14 complex degradation through the ubiquitin-proteasome system and affected the survival of human AML cell lines. A Western blot analysis of METTL3 expression in HEK293T cells after pretreatment with the CRBN ligand pomalidomide (10 µM) or the proteasome inhibitors bortezamib (0.1 µM) or MG132 (1 µM) for 2 h, followed by treatment with ZW30441 (2.5 µM) for 24 h (left). Western blot analysis of METTL3 and METTL14 levels in MV4-11 cells after treatment with UHZ2, ZW30441, and the negative control ZW30441NC at the indicated concentration for 24 h (right). B Cell viability study of ZW30441 in MOLM13 and MV4-11 cell lines (left). […]
Western Blot Analysis: Following treatment, total cellular proteins were extracted using RIPA buffer (Auragene, Changsha, China). […] Band intensities were quantified using ImageJ software and normalized to ACTIN as a loading control. Data was analyzed using GraphPad Prism 9. Degradation efficiency was evaluated by calculating DC₅₀, the drug concentration required to reduce target protein levels by 50%, and Dₘₐₓ, the maximum level of degradation observed across all tested concentrations.

T1 sequence (Q9HCE5 whole entry): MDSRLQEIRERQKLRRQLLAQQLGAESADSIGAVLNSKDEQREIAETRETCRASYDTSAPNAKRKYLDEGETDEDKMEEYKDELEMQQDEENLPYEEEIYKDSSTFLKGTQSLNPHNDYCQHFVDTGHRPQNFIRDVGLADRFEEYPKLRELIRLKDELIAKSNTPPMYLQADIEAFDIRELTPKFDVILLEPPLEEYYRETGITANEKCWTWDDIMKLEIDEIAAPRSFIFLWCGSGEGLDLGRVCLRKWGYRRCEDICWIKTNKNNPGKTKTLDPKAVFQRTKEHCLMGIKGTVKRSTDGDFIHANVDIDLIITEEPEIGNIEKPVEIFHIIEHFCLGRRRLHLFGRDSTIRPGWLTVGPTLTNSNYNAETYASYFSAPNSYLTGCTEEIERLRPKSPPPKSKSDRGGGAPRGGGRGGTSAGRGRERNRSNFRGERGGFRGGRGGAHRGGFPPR
T1 sequence (Q86U44 2-580 partner): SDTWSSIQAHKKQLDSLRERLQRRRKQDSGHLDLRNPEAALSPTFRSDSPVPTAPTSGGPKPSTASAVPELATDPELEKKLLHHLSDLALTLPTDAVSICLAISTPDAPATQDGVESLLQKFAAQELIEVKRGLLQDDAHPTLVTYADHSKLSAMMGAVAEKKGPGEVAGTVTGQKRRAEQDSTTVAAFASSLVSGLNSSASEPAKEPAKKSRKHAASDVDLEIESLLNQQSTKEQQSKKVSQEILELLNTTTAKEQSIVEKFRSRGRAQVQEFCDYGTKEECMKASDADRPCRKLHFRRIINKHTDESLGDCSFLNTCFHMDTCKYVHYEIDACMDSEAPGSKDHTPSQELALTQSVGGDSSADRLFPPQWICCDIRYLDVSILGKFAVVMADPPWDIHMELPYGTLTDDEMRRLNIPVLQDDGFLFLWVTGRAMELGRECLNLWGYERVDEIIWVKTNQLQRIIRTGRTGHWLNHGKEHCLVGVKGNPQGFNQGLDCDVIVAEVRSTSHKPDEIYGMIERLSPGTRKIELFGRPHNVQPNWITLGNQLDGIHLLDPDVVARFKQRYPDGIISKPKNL
Sequence of METTL3 (Q86U44 2-580 limits assumed): as the sequence (Q86U44 2-580 partner) above
Sequence of METTL3 (Q9HCE5 whole entry partner): as the sequence (Q9HCE5 whole entry) above

The compound `CC1(C)CCN(Cc2cc(F)c(N3CC(=O)NC4(CCN(c5cc(NCCCCCCCCCC(=O)N6CCN(c7ccc8c(c7)CN(C7CCC(=O)NC7=O)C8=O)CC6)ncn5)CC4)C3)cc2F)CC1` (stereo not drawn) [Compound 4j, 3-(5-(4-(10-((6-(4-(4-((4,4-dimethylpiperidin-1-yl)methyl)-2,5-difluorophenyl)-2-oxo-1,4,9-triazaspiro[5.5]undecan-9-yl)pyrimidin-4-yl)amino)decanoyl)piperazin-1-yl)-1-oxoisoindolin-2-yl)piperidine-2,6-dione] showed a Dmax on METTL14 (MV4-11, MV4-11 cells, 24 h) of 65%. For the same compound, the “% reduction in MV4-11 cells, 0.3 µM, METTL14” value on METTL14 (MV4-11 cells, 0.3 µM, 24 h, immunoblotting, nd = no degradation) is listed as 56%. For the same compound, the “% reduction in MV4-11 cells, 1.0 µM, METTL14” value on METTL14 (MV4-11 cells, 1.0 µM, 24 h, immunoblotting, nd = no degradation) stood at 77%. This compound also displayed a DC50 on METTL14 (MV4-11 cells, 24 h, Western blot normalized against ACTIN) of 130 nM. For the same compound, the “time of maximum degradation of METTL14” value at METTL14 (MV4-11 cells, time course at 1 µM) amounted to 20 h. In addition, the “intrinsic clearance (Clint) in human liver microsomes” value in data set [1] (1 µM, 1 mg/mL microsomal protein) is 152.1 ± 26.1 uL/min/mg of protein. Further, in data set [1] (male, human, liver microsomes, pH 7.4, 1 mg/mL microsomal protein, read-out: half-life (T1/2) in human liver microsomes), the half-life at 1 µM turned out to be 4.6 ± 0.7 min. Besides, at METTL3 (bortezomib (0.1 µM) or MG132 (1 µM) for 2 h), the “METTL3 degradation after pretreatment with proteasome inhibitors” value is “effectively blocked; also recorded: abrogated”. In addition, the “METTL3 degradation after pretreatment with CRBN ligand pomalidomide” value at METTL3 (pomalidomide 10 µM for 2 h) is listed as “significantly reduced; also recorded: abrogated”.

A word on the Dmax: it is the largest share of the target that was removed. In general, DC50 refers to the midpoint of the concentration-degradation curve. A high value points to a less potent degrader.
